Measurements as given in BindingDB's records for patent US12570675 (LG Chem, 2026).

Experiments:
[1] = molecular target: T1, Proteasome subunit beta type-5 (Homo sapiens, UniProt P28074); assay: Proteasome Activity Inhibition
T1 sequence (P28074 whole entry): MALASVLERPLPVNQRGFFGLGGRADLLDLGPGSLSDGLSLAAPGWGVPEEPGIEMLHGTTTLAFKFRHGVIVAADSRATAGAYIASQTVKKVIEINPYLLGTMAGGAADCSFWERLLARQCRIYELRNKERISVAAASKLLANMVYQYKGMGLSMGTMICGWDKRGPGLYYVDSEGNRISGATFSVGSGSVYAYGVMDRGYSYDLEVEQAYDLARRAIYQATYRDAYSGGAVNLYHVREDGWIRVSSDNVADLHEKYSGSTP
Procedure: (§1) RPMI8226 cells, which is a multiple myeloma cell line, were cultured and then separated by a centrifuge, and washed twice with phosphate buffered saline (PBS). 20 mM of a tris-HCl (pH 8.0) buffer solution was added to the washed cells, and the cells were disrupted by a homogenizer and centrifuged to obtain S26 protein from the supernatant. Suc-Leu-Leu-Val-Tyr-AMC, for a fluorogenic substrate for the chymotrypsin-like activity of the proteasome, and Z-Leu-Leu-Glu-AMC, for a fluorogenic substrate for the caspase-like activity, were purchased from Calbiochem, EMD Millipore and used. Into each well of a 96-well plate (opaque, black round bottom), 20 ul of the S26 protein (final RPMI8226 cell extract concentration: 2 ug/well), 10 ul of S26 proteasome inhibitor serially diluted from 10 uM (final DMSO concentration: 0.5%), and 20 ul of the fluorogenic substrate for the proteasome chymotrypsin-like or caspase-like activity (final concentration: 20 uM) were added and mixed and allowed to react in a 37° C. incubator for 90 minutes. The fluorescence of the fluorogenic substrate was measured by FlexStation II Fluorometer (Molecular Devices). The fluorescence inhibited by the compound diluted at each concentration was measured as the relative percentage value for the amount obtained from the treatment only with the S26 protein and the fluorogenic substrate.

[2] = molecular target: T2, Proteasome subunit beta type-6 (Homo sapiens, UniProt P28072); assay: Proteasome Activity Inhibition
T2 sequence (P28072 whole entry): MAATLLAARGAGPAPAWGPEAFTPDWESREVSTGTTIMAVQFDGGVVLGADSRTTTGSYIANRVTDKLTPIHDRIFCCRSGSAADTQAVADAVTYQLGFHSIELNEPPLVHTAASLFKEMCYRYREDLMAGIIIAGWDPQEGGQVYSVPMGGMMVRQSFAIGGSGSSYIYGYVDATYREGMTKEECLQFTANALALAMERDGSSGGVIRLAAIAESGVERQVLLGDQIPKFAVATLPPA
Procedure: as §1

IC50 [1]	IC50 [2]	Structure (SMILES)
< 500 nM	–	COc1ccc(Cl)cc1-c1cccc(C2=NOC(Cc3ccccc3)(C(=O)N[C@@H](CC(C)C)B(O)O)C2)c1 (stereo partly drawn) [US12570675, Example 35]
< 250 nM	–	CC(C)C[C@H](NC(=O)C1CC(CNc2ccccn2)=NO1)B(O)O (stereo partly drawn) [US12570675, Example 60]
< 50 nM	–	CC(C)C[C@H](NC(=O)C1CC(CNC(=O)C2Cc3ccccc3C2)=NO1)B(O)O (stereo partly drawn) [US12570675, Example 78]
< 25 nM	> 500 nM	CC(C)C[C@H](NC(=O)C1CC(CNC(=O)C2CCCc3ccccc32)=NO1)B(O)O (stereo partly drawn) [US12570675, Example 80]
< 25 nM	> 500 nM	CC[C@H](NC(=O)C1(Cc2ccccc2)CC(CNC(=O)c2ccccc2)=NO1)B(O)O (stereo partly drawn) [US12570675, Example 293]

Structure (SMILES)	IC50 [1]	IC50 [2]
CC(C)C[C@H](NC(=O)C1(Cc2ccccc2)CC(CNC(=O)c2cn(C(C)C)c3ccccc23)=NO1)B(O)O (stereo partly drawn) [US12570675, Example 209]	< 10 nM	–
